Measurements as given in US11059843B2, “Stevioside M crystal form, preparation method therefor and use thereof” (ZHUCHENG HAOTIAN PHARM CO., LTD., priority 2017, dated 2021).

Columns and labels:
[1] = Dynamic moisture adsorption (DVS) hygroscopicity; format: physicochemical; details: for hygroscopic mass change (0%-40% RH) / hygroscopicity: water absorption at 40% RH / hygroscopic mass change (40%-80% RH) / hygroscopicity: water absorption at 80% RH: DVS, 25° C.
Procedure: DVS analysis: It was measured using DVS Intrinsic type dynamic moisture adsorption instrument from British SMS instrument company, measuring temperature: 25° C.; relative humidity: 0-95%.

[2] = Crystal form stability by XRPD after drying at 105° C. for one day; format: physicochemical
Procedure: (§1) X-ray powder diffraction analysis (XRPD), differential scanning calorimetry analysis (DSC), thermogravimetric analysis (TG), dynamic moisture adsorption analysis (DVS) and the like were made for the crystal form A of stevioside M prepared in the above examples. XRPD analysis: It was tested at room temperature using a Bruker D8 advance type diffractometer from Bruker Instruments, Germany, Cu-Kα ray (λ=1.5418 Å) was used, the 2θ angle was scanned from 3 to 40 degrees, and the scanning speed was 0.2 degrees/second.
The crystal form A of stevioside M prepared in the above examples was subjected to XRPD analysis after drying at 105° C. for one day, and the analysis results are shown in FIG. 7. It can be seen from FIG. 7 that the crystal form is unchanged, and the crystal form has good stability under high temperature conditions. The crystal form B of stevioside M is extremely unstable under high temperature conditions, and which is amorphous after drying for one day at 105° C., and the analysis results are shown in FIG. 8.

[3] = Water solubility / powder dissolution profile; format: physicochemical
Procedure: The crystal form A of stevioside M prepared in the above examples has good reproducibility and is stable in water solubility, and has a maximum solubility of about 3 mg/mL, and the equilibrium solubility is about 2 mg/mL at 24 hours. The powder dissolution profiles of the two batches of crystal form A of stevioside M prepared by the examples are shown in FIG. 11. The water solubility of crystal form A is similar to that of the stevioside D-stevioside M amorphous composition (about 3 mg/mL) disclosed in Patent CN 105722533 A, and both of which can stably increase the water solubility by 2-3 times.

[4] = Chemical stability by HPLC after storage at 40° C. and RH 75% for half a year; format: physicochemical
Procedure: HPLC analysis: It was determined using a 1260 infinity liquid chromatograph from Agilent Technologies, Inc., USA. Sample solution preparation method: 25-50 mg of stevioside M sample was accurately weighed, and added into a 25 ml volumetric flask, then water-acetonitrile (7:3, v/v) solution was added, dissolved to volume. Preparation method of sodium phosphate buffer (specification: 10 mmol/L, pH: 2.6): dissolving 2.76 g of sodium dihydrogen phosphate into 2 liters of water, adding phosphoric acid, and the pH was adjusted to 2.6. Chromatographic column: Luna 5μ C18(2) 100 A column from Phenomenex. Injection volume: 5 μl. Flow rate: 1.0 mL/min. Column temperature: 40° C. Detector: UV detection at 210 nm. The elution gradient is shown as follows: […]

[5] = Physical stability of crystal form on storage at 25° C. and RH 60% for half a year (XRPD); format: physicochemical
Procedure: as §1
The crystal form A of stevioside M prepared in the above examples was stored at 25° C. and RH 60% for half a year, and the analysis results are shown in FIG. 9.

[6] = water at room temperature, stevioside M content of 75% to 90%; cited from earlier work

Compound	hygroscopic mass change (0%-40% RH) [1]	hygroscopicity: water absorption at 40% RH [1]	hygroscopic mass change (40%-80% RH) ([1]; 40%-80% RH)	hygroscopicity: water absorption at 80% RH [1]	crystal form after drying (XRPD) [2]	hygroscopicity compared with the amorphous form and crystal form B ([1]; 25° C. and 40% RH)	hygroscopicity compared with amorphism under normal storage ([1]; 40%-80% RH)	mass percentage of moisture absorption within a relative humidity of 0-40% ([1]; dynamic moisture adsorption profile FIG. 4, RH 0-40%)	mass percentage of moisture absorption within a relative humidity of 40-80% ([1]; dynamic moisture adsorption profile FIG. 4, RH 40-80%)	equilibrium solubility in water ([3]; at 24 hours)	maximum solubility in water ([3]; powder dissolution)	reduction of content (HPLC) after storage [4]	crystal form after storage (XRPD) [5]	solubility in water [6]
C=C1C[C@@]23CCC4[C@](C)(C(=O)OC5OC(CO)C(O)C(OC6OC(CO)C(O)C(O)C6O)C5OC5OC(CO)C(O)C(O)C5O)CCC[C@@]4(C)[C@@H]2CCC1(OC1OC(CO)C(O)C(OC2OC(CO)C(O)C(O)C2O)C1OC1OC(CO)C(O)C(O)C1O)C3 (stereo partly drawn) [amorphism of stevioside M, 13-[(2-O-β-D-pyranoglucosyl-3-O-β-D-pyranoglucosyl-β-D-pyranoglucosyl)oxyl]-ent-kauran-16-en-19-oic acid-[(2-O-β-D-pyranoglucosyl-3-O-β-D-pyranoglucosyl-β-D-pyranoglucosyl) ester], reference compound]	11.0%	40% RH, 11.0% of	8.2%	80% RH, 19.2% of										
C=C1C[C@@]23CCC4[C@](C)(C(=O)OC5OC(CO)C(O)C(OC6OC(CO)C(O)C(O)C6O)C5OC5OC(CO)C(O)C(O)C5O)CCC[C@@]4(C)[C@@H]2CCC1(OC1OC(CO)C(O)C(OC2OC(CO)C(O)C(O)C2O)C1OC1OC(CO)C(O)C(O)C1O)C3 (stereo partly drawn) [crystal form A of stevioside M, 13-[(2-O-β-D-pyranoglucosyl-3-O-β-D-pyranoglucosyl-β-D-pyranoglucosyl)oxyl]-ent-kauran-16-en-19-oic acid-[(2-O-β-D-pyranoglucosyl-3-O-β-D-pyranoglucosyl-β-D-pyranoglucosyl) ester]]	9.4%	40% RH, 9.4% of	4.6%	80% RH, 14.0% of	unchanged	significantly less hygroscopic	less hygroscopic than amorphism	0-9.4%	9.4-14.0%	about 2 mg/mL	about 3 mg/mL	less than 0.2%	unchanged	
C=C1C[C@@]23CCC4[C@](C)(C(=O)OC5OC(CO)C(O)C(OC6OC(CO)C(O)C(O)C6O)C5OC5OC(CO)C(O)C(O)C5O)CCC[C@@]4(C)[C@@H]2CCC1(OC1OC(CO)C(O)C(OC2OC(CO)C(O)C(O)C2O)C1OC1OC(CO)C(O)C(O)C1O)C3 (stereo partly drawn) [crystal form B of stevioside M, 13-[(2-O-β-D-pyranoglucosyl-3-O-β-D-pyranoglucosyl-β-D-pyranoglucosyl)oxyl]-ent-kauran-16-en-19-oic acid-[(2-O-β-D-pyranoglucosyl-3-O-β-D-pyranoglucosyl-β-D-pyranoglucosyl) ester]]	15.3%	40% RH, 15.3% of	2.1%	80% RH, 17.4% of	amorphous									
C=C1C[C@@]23CCC4[C@](C)(C(=O)OC5OC(CO)C(O)C(OC6OC(CO)C(O)C(O)C6O)C5OC5OC(CO)C(O)C(O)C5O)CCC[C@@]4(C)[C@@H]2CCC1(OC1OC(CO)C(O)C(OC2OC(CO)C(O)C(O)C2O)C1OC1OC(CO)C(O)C(O)C1O)C3 (stereo partly drawn) [stevioside M, 13-[(2-O-β-D-pyranoglucosyl-3-O-β-D-pyranoglucosyl-β-D-pyranoglucosyl)oxyl]-ent-kauran-16-en-19-oic acid-[(2-O-β-D-pyranoglucosyl-3-O-β-D-pyranoglucosyl-β-D-pyranoglucosyl) ester]]														0.1% to 0.15
